Read-outs that look alike come from different tables or passages of the source.
Legend:
neutrophils [1] = settings: human, in vivo
Protocol: The 5-FU±HA was given by intravenous administration over one hour on a four week cycle. The initial dose of 5-FU in this study was 450 mg/m^2 daily for three days and the dose of HA 500 mg/m^2 with each administration of 5-FU. Dose escalation occurred in two steps to reach the standard dose of 450 mg/m^2 for five consecutive days with each cycle. Therefore, the initial dose level was 450 mg/r^2 daily for three days, the next 450 mg/m^2 for four days and the final 450 mg/m^2 daily for five days.

neutrophils [2] = experiment: Phase I clinical trial of doxorubicin + HA (HyDox) in advanced cancer: toxicity, neutrophil counts; format: in vivo, patients; settings: HA 500 mg/m^2 with Dox 30-60 mg/m^2, three week cycle
Source text: The eligibility criteria, for inclusion in this study, were as follows: Patients must have advanced or metastatic cancer, histologically or cytologically confirmed. Patients were not to have had previous chemotherapy or were to have had no more than one prior chemotherapy regime and were not to have had prior anthracyclines. Patients were to be aged between 18 and 75 years with ambulatory performance status and adequate bone marrow, liver and renal function.
The treatment plan provided that, in the first chemotherapy cycle, patients be randomized to receive Dox alone or Dox plus HA. The converse applied in the second cycle. In the subsequent four cycles, patients received Dox plus HA. This allowed each patient to act as his/her own control in the toxicity analysis in the first two cycles, reducing the possibility of inter-patient variability affecting result interpretation.
Injectable sodium chloride was obtained from Baxter Healthcare, Sydney, Australia, as supplied as a 500 ml infusion bag.
Therefore, the initial dose level was 30 mg/m^2, the next 45 mg/m^2 and the next 60 mg/m^2.

[3] = In vivo cytotoxicity (III), CMF±HA: effect of treatment on organ mass; design: species or system Athymic CBA/WEHI nude female mice; settings: mouse
Source text: (§1) Immediately after killing the mouse, the tumor, liver, heart, spleen, bladder, left and right kidneys, uterus, lungs, stomach, intestines, brain and lymph nodes were excised and weighed, and placed in 10% v/v formalin. The tissue was fixed for 16-24 hrs before histological processing. Fixed tissue was dehydrated stepwise to 100% v/v ethanol and embedded in paraffin blocks from which 2-4 μm sections were placed on glass microscope slides. Staining the tissue sections with a hematoxylin nuclear stain and eosin cytoplasmic stain highlighted any pathological features that could indicate treatment toxicity.
The mass of each organ was calculated as a percentage of the overall net bodyweight, and compared to the organ masses of the saline only group.

[4] = format: in vivo; settings: 6-week regimen
Protocol: The overall survival time was calculated as the time (days or weeks) that the animal lived, after the commencement of treatment.

[5] = In vivo cytotoxicity (III), CMF±HA: organ pathology (lungs, liver); design: species or system Athymic CBA/WEHI nude female mice
Source text: as §1

[6] = system: blood cell sub-populations; experiment: In vivo cytotoxicity (III), CMF±HA: bone marrow suppression (blood cell counts); design: species or system Athymic CBA/WEHI nude female mice
Protocol: At the experimental end-point, when animals had to be euthanased due to degree of disease progression or when the 6-week treatment regimen was completed, the animals were anesthetized by a 0.1 ml intra-peritoneal injection of Nembutal (60 mg/ml), blood was collected, and the animals killed using cervical dislocation.
Erythrocyte, platelet and white blood cell numbers were estimated by making a 1/50- 1/2000 dilution of blood in mouse tenacity saline and counting on a hemocytometer. A blood smear was made and stained with Giemsa, thereby enabling a relative percentage quantification of neutrophils, lymphocytes, and […]. The total estimation of blood cell sub-populations was compared with published data for mouse blood.

[7] = HA days 1 and 3 (CMF, where given, days 2 and 4)

Substance: hyaluronan [HA]
- Effect on known toxicities of 5-FU in patients (neutrophils [1]): does not increase any of the known toxicities of 5-FU
- Effect on known toxicities of Dox in patients (neutrophils [2]): does not increase any of the known toxicities of Dox
- Spleen mass compared to the untreated control [3]: significant enlargement of the spleen
- Survival time mean ± SEM [4, 7]: 42 ± 0 days
- Survival time mean ± SEM ([4]; administered days 1 and 2): 42 ± 0 days
- Liver: % with areas of focal liver necrosis/inflammation ([5]; liver pathology): 25% with
- Lungs: % with oedema and macrophage infiltrate ([5]; lung pathology): 12.5% with
- Erthrocytes (Mean ± SD) [6, 7]: 8.78 ± 0.25 × 10^6/ul
- Lymphocytes/Monocytes (Mean ± SD) [6, 7]: 47 ± 2%
- Neutrophils/eosinophils/basophils (Mean ± SD) [6, 7]: 53 ± 2%
- Platelets (Mean ± SD) [6, 7]: 1356 ± 41 × 10^3/ul
- White Cells (Mean ± SD) [6, 7]: 6.15 ± 0.05 × 10^3/ul
- Erthrocytes (Mean ± SD) ([6]; administered days 1 and 2): 8.99 ± 0.13 × 10^6/ul
- Lymphocytes/Monocytes (Mean ± SD) ([6]; administered days 1 and 2): 47 ± 1%
- Neutrophils/eosinophils/basophils (Mean ± SD) ([6]; administered days 1 and 2): 53 ± 1%
- Platelets (Mean ± SD) ([6]; administered days 1 and 2): 1374 ± 7 × 10^3/ul
- White Cells (Mean ± SD) ([6]; administered days 1 and 2): 6.15 ± 0.03 × 10^3/ul

Reference: patent publication US20090306012A1, “THERAPEUTIC PROTOCOLS” (priority 2001, published 2009)
